Assay results taken from US10787450B2 (BRISTOL-MYERS SQUIBB COMPANY, priority 2016, dated 2020).

biological target: ROCK2 (Homo sapiens (Human), UniProt O75116); assay: ROCK2 kinase inhibition assay (FITC peptide substrate, LABCHIP 3000 Reader); type: biochemical; settings: 5 μM ATP, 1.5 μM peptide substrate
Procedure, shortened: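 IC50 derived by curve fitting of dose-response inhibition, read as separation of phosphorylated from unphosphorylated FITC peptide (1.5 μM) after EDTA stop. Buffer: HEPES pH 7.5, MgCl2, Brij-35, DTT; ATP 5 μM; final DMSO <2%; reaction initiated by Rho kinase addition.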

Chain of ROCK2 (O75116 whole entry, species assumed): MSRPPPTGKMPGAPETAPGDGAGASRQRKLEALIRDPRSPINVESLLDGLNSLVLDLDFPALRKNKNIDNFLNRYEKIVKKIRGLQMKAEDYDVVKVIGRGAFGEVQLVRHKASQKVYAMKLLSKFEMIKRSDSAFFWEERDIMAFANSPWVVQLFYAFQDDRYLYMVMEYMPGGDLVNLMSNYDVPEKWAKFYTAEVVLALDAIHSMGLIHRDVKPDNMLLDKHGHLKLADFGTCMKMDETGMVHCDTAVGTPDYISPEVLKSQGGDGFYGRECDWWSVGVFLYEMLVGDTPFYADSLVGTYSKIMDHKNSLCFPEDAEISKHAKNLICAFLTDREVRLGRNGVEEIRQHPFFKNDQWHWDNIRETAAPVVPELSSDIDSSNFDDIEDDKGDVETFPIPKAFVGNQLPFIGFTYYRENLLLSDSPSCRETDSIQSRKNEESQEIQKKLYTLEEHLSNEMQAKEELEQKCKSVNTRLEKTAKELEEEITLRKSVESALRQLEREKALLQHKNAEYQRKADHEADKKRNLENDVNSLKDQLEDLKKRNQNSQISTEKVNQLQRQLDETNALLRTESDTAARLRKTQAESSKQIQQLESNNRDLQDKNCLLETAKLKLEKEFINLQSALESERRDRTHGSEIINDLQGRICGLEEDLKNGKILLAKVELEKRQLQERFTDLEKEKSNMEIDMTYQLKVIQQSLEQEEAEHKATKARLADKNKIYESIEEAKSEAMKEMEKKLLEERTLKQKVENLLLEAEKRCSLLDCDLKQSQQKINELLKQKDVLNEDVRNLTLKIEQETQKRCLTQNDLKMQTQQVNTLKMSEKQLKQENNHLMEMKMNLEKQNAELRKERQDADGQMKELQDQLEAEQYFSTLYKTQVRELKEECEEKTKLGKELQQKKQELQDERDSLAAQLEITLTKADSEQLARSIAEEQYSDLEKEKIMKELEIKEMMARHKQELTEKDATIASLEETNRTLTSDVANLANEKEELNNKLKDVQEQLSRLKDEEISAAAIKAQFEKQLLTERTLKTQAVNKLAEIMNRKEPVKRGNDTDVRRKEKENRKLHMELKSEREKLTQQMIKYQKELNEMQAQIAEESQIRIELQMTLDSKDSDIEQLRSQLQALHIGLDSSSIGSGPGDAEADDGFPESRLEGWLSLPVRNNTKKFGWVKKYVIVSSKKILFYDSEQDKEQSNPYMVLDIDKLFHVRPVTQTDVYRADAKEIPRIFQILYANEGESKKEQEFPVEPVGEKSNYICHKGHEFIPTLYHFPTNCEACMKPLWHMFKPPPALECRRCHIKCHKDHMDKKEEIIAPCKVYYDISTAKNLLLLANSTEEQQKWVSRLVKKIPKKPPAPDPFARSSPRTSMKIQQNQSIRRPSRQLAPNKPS

First: COc1cccc(NC2C(=O)N(c3ccc(-c4cn[nH]c4)cc3)CC23CN(C(=O)OC(C)(C)C)C3)c1 (stereo not shown) [Example 240, tert-butyl 6-(4-(1H-pyrazol-4-yl)phenyl)-8-((3-methoxyphenyl)amino)-7-oxo-2,6-diazaspiro[3.4]octane-2-carboxylate]
Second: COc1cccc(NC2C(=O)N(c3ccc(-c4cn[nH]c4)cc3)CC23CCN(CCO)CC3)c1 (stereo not shown) [Example 252, 2-(4-(1H-pyrazol-4-yl)phenyl)-8-(2-hydroxy-ethyl)-4-((3-methoxy-phenyl)amino)-2,8-diazaspiro [4.5]decan-3-one]
The IC50 of the first is lower: 30 to 250 nM for the first, 250 to 3000 nM for the second. The first is the more potent here.

`CCc1nc(N2CC3(CCN(C(C)=O)CC3)N(Cc3cc(F)cc(OC)c3)C2=O)ccc1-c1cn[nH]c1` [Example 89, 8-acetyl-3-(6-ethyl-5-(1H-pyrazol-4-yl)pyridin-2-yl)-1-(3-fluoro-5-methoxybenzyl)-1,3,8-triazaspiro[4.5]decan-2-one] and `CCc1nc(N2CC3(CCN(C(=O)C(C)O)CC3)N(Cc3cc(F)cc(OC)c3)C2=O)ccc1-c1cn[nH]c1` (stereo not shown) [Example 188, 3-(6-ethyl-5-(1H-pyrazol-4-yl)pyridin-2-yl)-1-(3-fluoro-5-methoxybenzyl)-8-(2-hydroxypropanoyl)-1,3,8-triazaspiro[4.5]decan-2-one] cannot be ordered by IC50: less than 3 nM for the first, less than 3 nM for the second.

`CCOC(=O)N1CCC2(CC1)CN(c1ccc(-c3cn[nH]c3)cc1)C(=O)N2Cc1cccc(OC)c1` [Example 96, ethyl 3-(4-(1H-pyrazol-4-yl)phenyl)-1-(3-methoxybenzyl)-2-oxo-1,3,8-triazaspiro[4.5]decane-8-carboxylate] and `CCCOC(=O)N1CCC2(CC1)CN(c1ccc(-c3cn[nH]c3)cc1)C(=O)N2Cc1cccc(OC)c1` [Example 100, propyl 3-(4-(1H-pyrazol-4-yl)phenyl)-1-(3-methoxybenzyl)-2-oxo-1,3,8-triazaspiro[4.5]decane-8-carboxylate] cannot be ordered by IC50: less than 3 nM for the first, less than 3 nM for the second.

`Cc1c(F)cccc1CN1C(=O)N(c2ccc(-c3cn[nH]c3)cc2)CC12CCN(CCO)CC2` [Example 143, 3-(4-(1H-pyrazol-4-yl)phenyl)-1-(3-fluoro-2-methylbenzyl)-8-(2-hydroxyethyl)-1,3,8-triazaspiro[4.5]decan-2-one] and `Cc1c(F)cccc1CN1C(=O)N(c2ccc(-c3cn[nH]c3)cc2)CC12CCOCC2` [Example 25, 3-(4-(1H-pyrazol-4-yl)phenyl)-1-(3-fluoro-2-methylbenzyl)-8-oxa-1,3-diazaspiro[4.5]decan-2-one] cannot be ordered by IC50: less than 3 nM for the first, less than 3 nM for the second.

Compared with `O=C(NCC(F)(F)F)c1cccc(CN2C(=O)N(c3ccc(-c4cn[nH]c4)cc3)CC23CCOCC3)c1` [Example 38, 3-((3-(4-(1H-pyrazol-4-yl)phenyl)-2-oxo-8-oxa-1,3-diazaspiro[4.5]decan-1-yl)methyl)-N-(2,2,2-trifluoroethyl)benzamide], `O=C1N(c2ccc(-c3cn[nH]c3)cc2)CC2(CCOCC2)N1Cc1cccc(C(F)(F)F)c1` [Example 18, 3-(4-(1H-pyrazol-4-yl)phenyl)-1-(3-(trifluoromethyl)benzyl)-8-oxa-1,3-diazaspiro[4.5]decan-2-one] is higher in IC50: less than 3 nM for the first, 30 to 250 nM for the second. The first is the more potent here.

First: CC(=O)N1CCC2(CC1)CN(c1ccc(-c3cn[nH]c3)cc1)C(=O)N2Cc1cccc(F)c1F [Example 77, 3-(4-(1H-pyrazol-4-yl)phenyl)-8-acetyl-1-(2,3-difluorobenzyl)-1,3,8-triazaspiro[4.5]decan-2-one]
Second: COc1cccc(CN2C(=O)N(c3ccc(-c4cn[nH]c4)cc3)CC23CCN(C(=O)OC(C)C)CC3)c1 [Example 99, isopropyl 3-(4-(1H-pyrazol-4-yl)phenyl)-1-(3-methoxybenzyl)-2-oxo-1,3,8-triazaspiro[4.5]decane-8-carboxylate]
The IC50 of the first is higher: 30 to 250 nM for the first, less than 3 nM for the second. The second is the more potent here.

First: COc1cccc(C(C)N2C(=O)N(c3ccc(-c4cn[nH]c4)cc3)CC23CC3)c1 (single isomer, unassigned) [Example 2, 6-(4-(1H-pyrazol-4-yl)phenyl)-4-(1-(3-methoxyphenyl)ethyl)-4,6-diazaspiro[2.4]heptan-5-one]
Second: COc1cccc(CN2C(=O)N(c3ccc(-c4cn[nH]c4)cc3)CC23CCN(CC(C)O)CC3)c1 (single isomer, unassigned) [Example 139, 3-(4-(1H-pyrazol-4-yl)phenyl)-8-(2-hydroxypropyl)-1-(3-methoxybenzyl)-1,3,8-triazaspiro[4.5]decan-2-one]
The IC50 of the first is higher: 3 to 30 nM for the first, less than 3 nM for the second.

`CNC(=O)CN1CCC2(CC1)CN(c1ccc(-c3cn[nH]c3)cc1)C(=O)N2Cc1cccc(OC)c1` [Example 168, 2-(3-(4-(1H-pyrazol-4-yl)phenyl)-1-(3-methoxybenzyl)-2-oxo-1,3,8-triazaspiro[4.5]decan-8-yl)-N-methylacetamide] and `CCCN1CCC2(CC1)CN(c1ccc(-c3cn[nH]c3)cc1)C(=O)N2Cc1cccc(OC)c1` [Example 116, 3-(4-(1H-pyrazol-4-yl)phenyl)-1-(3-methoxybenzyl)-8-propyl-1,3,8-triazaspiro[4.5]decan-2-one] cannot be ordered by IC50: less than 3 nM for the first, less than 3 nM for the second.

`COCCN1CCC2(CC1)CN(c1ccc(-c3cn[nH]c3)c(OC)n1)C(=O)N2Cc1cccc(F)c1C` [Example 165, 1-(3-fluoro-2-methylbenzyl)-3-(6-methoxy-5-(1H-pyrazol-4-yl)pyridin-2-yl)-8-(2-methoxyethyl)-1,3,8-triazaspiro[4.5]decan-2-one] and `CCc1nc(N2CC3(CCN(CCO)CC3)N(Cc3cccc(OC)c3)C2=O)ccc1-c1cn[nH]c1` [Example 150, 3-(6-ethyl-5-(1H-pyrazol-4-yl)pyridin-2-yl)-8-(2-hydroxyethyl)-1-(3-methoxybenzyl)-1,3,8-triazaspiro[4.5]decan-2-one] cannot be ordered by IC50: less than 3 nM for the first, less than 3 nM for the second.

`CCc1nc(N2CC3(CCN(C(=O)CO)CC3)N(Cc3cccc(OC)c3)C2=O)ccc1-c1cn[nH]c1` [Example 184, 3-(6-ethyl-5-(1H-pyrazol-4-yl)pyridin-2-yl)-8-(2-hydroxyacetyl)-1-(3-methoxybenzyl)-1,3,8-triazaspiro[4.5]decan-2-one] and `CCc1nc(N2CC3(CCN(C(=O)C(F)F)CC3)N(Cc3cccc(OC)c3)C2=O)ccc1-c1cn[nH]c1` [Example 183, 8-(2,2-difluoroacetyl)-3-(6-ethyl-5-(1H-pyrazol-4-yl)pyridin-2-yl)-1-(3-methoxybenzyl)-1,3,8-triazaspiro[4.5]decan-2-one] cannot be ordered by IC50: less than 3 nM for the first, less than 3 nM for the second.

Compared with `CCc1nc(N2CC3(CCN(C(=O)OC(C)(C)C)CC3)N(Cc3cccc(OC)c3)C2=O)ccc1-c1cn[nH]c1` [Example 53, tert-butyl 3-(6-ethyl-5-(1H-pyrazol-4-yl)pyridin-2-yl)-1-(3-methoxybenzyl)-2-oxo-1,3,8-triazaspiro[4.5]decane-8-carboxylate], `CCc1nc(N2CC3(CCN(C(=O)[C@H]4CC4(F)F)CC3)N(Cc3cccc(OC)c3)C2=O)ccc1-c1cn[nH]c1` [Example 217, (R)-8-(2,2-difluorocyclopropane-carbonyl)-3-(6-ethyl-5-(1H-pyrazol-4-yl)pyridin-2-yl)-1-(3-methoxybenzyl)-1,3,8-triazaspiro[4.5]decan-2-one] is lower in IC50: 30 to 250 nM for the first, less than 3 nM for the second.

First: CCOC(=O)N1CCC2(CC1)CN(c1ccc(-c3cn[nH]c3)c(CC)n1)C(=O)N2Cc1cc(F)cc(OC)c1 [Example 106, ethyl 3-(6-ethyl-5-(1H-pyrazol-4-yl)pyridin-2-yl)-1-(3-fluoro-5-methoxybenzyl)-2-oxo-1,3,8-triazaspiro[4.5]decane-8-carboxylate]
Second: CCc1nc(N2CC3(CCN(C(=O)C(C)(C)O)CC3)N(Cc3cc(F)cc(OC)c3)C2=O)ccc1-c1cn[nH]c1 [Example 187, 3-(6-ethyl-5-(1H-pyrazol-4-yl)pyridin-2-yl)-1-(3-fluoro-5-methoxybenzyl)-8-(2-hydroxy-2-methylpropanoyl)-1,3,8-triazaspiro[4.5]decan-2-one]
The IC50 of the first is higher: 3 to 30 nM for the first, less than 3 nM for the second. The second is the more potent here.

`COc1cccc(CN2C(=O)N(c3ccc(-c4cn[nH]c4)cc3)CC23CCN(C2COC2)CC3)c1` [Example 235, 3-(4-(1H-pyrazol-4-yl)phenyl)-1-(3-methoxybenzyl)-8-(oxetan-3-yl)-1,3,8-triazaspiro[4.5]decan-2-one] and `COc1cccc(CN2C(=O)N(c3ccc(-c4cn[nH]c4)cc3)CC23CCN(C(=O)C2CCCC2)CC3)c1` [Example 174, 3-(4-(1H-pyrazol-4-yl)phenyl)-8-(cyclopentanecarbonyl)-1-(3-methoxybenzyl)-1,3,8-triazaspiro[4.5]decan-2-one] cannot be ordered by IC50: less than 3 nM for the first, less than 3 nM for the second.

`COc1cccc(CN2C(=O)N(c3ncc(-c4cn[nH]c4)c(OC)n3)CC23CCN(C(=O)CN(C)C)CC3)c1` [Example 210, 8-(2-(dimethylamino)acetyl)-3-(4-methoxy-5-(1H-pyrazol-4-yl)pyrimidin-2-yl)-1-(3-methoxybenzyl)-1,3,8-triazaspiro[4.5]decan-2-one] and `CCc1nc(N2CC3(CCN(C(=O)C4COC4)CC3)N(Cc3cccc(OC)c3)C2=O)ccc1-c1cn[nH]c1` [Example 185, 3-(6-ethyl-5-(1H-pyrazol-4-yl)pyridin-2-yl)-1-(3-methoxybenzyl)-8-(oxetane-3-carbonyl)-1,3,8-triazaspiro[4.5]decan-2-one] cannot be ordered by IC50: less than 3 nM for the first, less than 3 nM for the second.

Compared with `COc1cccc(NC2C(=O)N(c3ccc(-c4cn[nH]c4)cn3)CC23CCN(C(=O)Cc2csc(C)n2)CC3)c1` (stereo not shown) [Example 257, 2-(5-(1H-pyrazol-4-yl)pyridin-2-yl)-4-((3-methoxy-phenyl)amino)-8-(2-(2-methyl-thiazol-4-yl)acetyl)-2,8-diazaspiro [4.5]decan-3-one], `COc1cccc(CN2C(=O)N(c3ccc(-c4cn[nH]c4)cn3)CC23CCN(C(=O)C(F)F)CC3)c1` [Example 194, 3-(5-(1H-pyrazol-4-yl)pyridin-2-yl)-8-(2,2-difluoroacetyl)-1-(3-methoxybenzyl)-1,3,8-triazaspiro[4.5]decan-2-one] is lower in IC50: 250 to 3000 nM for the first, 3 to 30 nM for the second. The second is the more potent here.

Molecule `COc1cccc(CN2C(=O)N(c3ccc(-c4cn[nH]c4)cc3)CC23CC[N+]([O-])(CCO)CC3)c1` (stereo not shown) [Example 145, 3-(4-(1H-pyrazol-4-yl)phenyl)-8-(2-hydroxyethyl)-1-(3-methoxybenzyl)-2-oxo-1,3,8-triazaspiro[4.5]decane 8-oxide] has an IC50 of less than 3 nM.
